Reference: ChEMBL document CHEMBL1201862, “PubChem BioAssay data set” (2004)
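Exposure lasted 48 hours, with cells grown in 96-well plates and compounds tested at five concentrations. At the GI50, growth is halved.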 Active and inactive are the calls of the source. Cut-off read from the data, not from the text of the source: active = GI50 up to about 1.1 µM and inactive = higher.

What was measured:
Assay in all cases: NCI-60 cell line screen, 48 h
MDA-N = system: MDA-N
HCT-15 = system: HCT-15
NCI-H226 = system: NCI-H226
NCI-H460 = system: NCI-H460
SF-539 = system: SF-539
SN12C = system: SN12C
M14 = system: M14
HL-60 = system: HL-60
CAKI-1 = system: CAKI-1
SNB-75 = system: SNB-75
HCT-116 = system: HCT-116
LOX IMVI = system: LOX IMVI
OVCAR-3 = system: OVCAR-3
A498 = system: A498
UACC-62 = system: UACC-62
COLO 205 = system: COLO 205
NCI-H23 = system: NCI-H23
TK-10 = system: TK-10
MCF7 = system: MCF7
Hs-578T = system: Hs-578T

SMILES	GI50 (MDA-N)	GI50 (HCT-15)	GI50 (NCI-H226)	GI50 (NCI-H460)	GI50 (SF-539)	GI50 (SN12C)	GI50 (M14)	GI50 (HL-60)	GI50 (CAKI-1)	GI50 (SNB-75)	GI50 (HCT-116)	GI50 (LOX IMVI)	GI50 (OVCAR-3)	GI50 (A498)	GI50 (UACC-62)	GI50 (COLO 205)	GI50 (NCI-H23)	GI50 (TK-10)	GI50 (MCF7)	GI50 (Hs-578T)
OCc1ccc(-c2ccc(-c3ccc(CO)s3)o2)s1	5.06 µM (inactive)	8.09 µM	0.0375 µM (active)	0.0557 µM (active)	14.2 µM (inactive)	5.13 µM (inactive)	30 µM (inactive)	3.56 µM (inactive)	0.0116 µM (active)	36.6 µM (inactive)	0.0622 µM (active)	21.8 µM (inactive)	0.0703 µM (active)	0.0151 µM (active)	0.0142 µM (active)	0.335 µM (active)	17.9 µM (inactive)	0.0249 µM (active)	0.0336 µM (active)	27.7 µM (inactive)
C=CCNC1=C2C[C@@H](C)C[C@@H](OC)C(OC(=O)CCCN(C)C)[C@H](C)/C=C(\C)[C@@H](OC(N)=O)[C@H](OC)/C=C\C=C(/C)C(=O)NC(=CC1=O)C2=O (stereo not given in full)	7.26 µM (inactive)	6.32 µM	14.6 µM (inactive)	2.99 µM (inactive)	6.73 µM (inactive)	2.42 µM (inactive)	8.53 µM (inactive)	5.51 µM (inactive)	12.4 µM (inactive)	10.9 µM (inactive)	7.13 µM (inactive)	10.1 µM (inactive)	3.3 µM (inactive)	13.8 µM (inactive)	12.4 µM (inactive)	2.82 µM (inactive)	6.84 µM (inactive)	11.6 µM (inactive)	2.02 µM (inactive)	17.5 µM (inactive)
CCCCCCOc1ccc(C(=O)NOCc2ccccc2)cc1	45.8 µM (inactive)	63.8 µM	> 100 µM (inactive)	> 100 µM (inactive)	> 100 µM (inactive)	> 100 µM (inactive)	> 100 µM (inactive)	39.7 µM (inactive)	> 100 µM (inactive)	> 100 µM (inactive)	> 100 µM (inactive)	> 100 µM (inactive)	> 100 µM (inactive)	> 100 µM (inactive)	> 100 µM (inactive)	> 100 µM (inactive)	> 100 µM (inactive)	> 100 µM (inactive)	> 100 µM (inactive)	> 100 µM (inactive)
[BH3-][P+]1(CC[P@@+]([BH3-])(c2ccccc2)c2ccccc2OC)[C@@H](C)[C@@H](O)[C@H](O)[C@@H]1C (stereo not given in full)	16 µM (inactive)	17.5 µM	17.3 µM (inactive)	16.4 µM (inactive)	16.5 µM (inactive)	13.4 µM (inactive)	16.7 µM (inactive)	23.2 µM (inactive)	15.6 µM (inactive)	14.8 µM (inactive)	17.7 µM (inactive)	2.44 µM (inactive)	16.1 µM (inactive)	18 µM (inactive)	14.8 µM (inactive)	17.8 µM (inactive)	16 µM (inactive)	17.8 µM (inactive)	18.2 µM (inactive)	10.3 µM (inactive)
CC(C)=CCC/C(C)=C/Cc1cc(/C=C/c2cc(O)c(CC=C(C)C)c(O)c2)cc(O)c1O [MAPPAIN]	2.41 µM (inactive)	3.05 µM	8.59 µM (inactive)	2.68 µM (inactive)	3.79 µM (inactive)	1.95 µM (inactive)	4.26 µM (inactive)	0.502 µM (active)	5.42 µM (inactive)	2.58 µM (inactive)	3.37 µM (inactive)	2.31 µM (inactive)	1.99 µM (inactive)	6.56 µM (inactive)	2.7 µM (inactive)	17.3 µM (inactive)	3.31 µM (inactive)	3.32 µM (inactive)	3.45 µM (inactive)	10.8 µM (inactive)
